# Assay results: patent US10022342B2, “Methods and compositions for treating multiple myeloma” (Ohio State Innovation Foundation, priority 2015, dated 2018)
# Key:
# histone 3 and 4 = test: Immunoblot of acetyl histone H3 and H4 in MM.1S cells; type: cell-based, human; conditions: 0.1 μM, 24-hr
# Description: Growth inhibitory and pro-apoptotic properties of AR-42 as a single agent treatment agent have been reported previously in numerous malignancies, including MM. Because of the potent immunomodulatory effects observed with classical pan-HDACi's, immunology-related gene networks altered upon AR-42 treatment in MM cells were investigated using nCounter technology to analyze the effects of AR-42 on the expression of 511 human genes in MM.1S cells following 24-hr treatment with 0.1 μM AR-42.
# (§1) Cells were harvested by centrifugation, washed with PBS and lysed using buffer composed of 50 mM Tris (pH 7.5), 150 mM NaCl, 10% glycerol, 1.0% NP-40, 0.1% SDS, supplemented with protease and phosphatase inhibitors. Protein concentrations were estimated by Bradford assay and equivalent quantities of the lysates were resolved on 4-20% Tris-HCl SDS-PAGE TGX gels (Bio-Rad). Proteins were transferred to nitrocellulose membranes and stained for acetyl-histone H3 (Milipore), acetyl-histone H4 (Milipore), IGF2BP1 (Cell Signaling Technology), IGF2BP3 (IMP-3, Santa Cruz Biotechnology), CD44 (Santa Cruz Biotechnology), CD48 (Abcam), Drosha (Cell Signaling Technology), or glyceraldehyde 3-phosphate dehydrogenase (GAPDH, Cell Signaling Technology), followed by anti-mouse, or anti-rabbit IgG-HRP (GE Healthcare). Signals were developed using Pierce ECL Western Blotting Substrate (Thermo Fisher Scientific).
# miR-9-5p = miR-9-5p expression by stem loop qRT-PCR; type: cell-based, human; conditions: 24 hours, dose dependent, vs control
# Description: 51 miRNAs were differentially expressed between the two groups.
# Quantitative real time-PCR (qRT-PCR) was performed with the TaqMan method (Applied Biosystems), according to the manufacturer's instructions, and analyzed with the 7900HT Sequence Detection System (Applied Biosystems). The appropriate TaqMan probes for mRNA, miRNA, and pri-miRNA quantification were purchased from Applied Biosystems, and all reactions were performed in triplicate. The following probes were used: hsa-miR-9-5p (000583), hsa-mir-9-1 (Hs03303201_pri), hsa-miR-9-2 (Hs03303202_pri), hsa-mir-9-3 (Hs03293595_pri), CD44 (Hs01075861_ml), IGF2BP3 (Hs00559907_g1). Simultaneous quantification of ornithine decarboxylase antizyme 1 (OAZ1), or GAPDH mRNAs were used as a reference for mRNA data normalization, while small endogenous nucleolar RNA U44/U48, or U6 were used for miRNA normalization. The relative expression levels were calculated by the comparative cycle threshold (Ct) method (User Bulletin #2; Applied Biosystems). Expression analyses of pre-miRNA was performed with SYBR green PCR master mix (Applied Biosystems) and normalized for U6 RNA. All primers used for amplification steps are listed in the Supplementary materials and methods.
# MM cells = test: IC50 concentrations of HDAC inhibitors in MM cells; type: cell-based; conditions: Homo sapiens
# CD48 = CD48 protein and mRNA expression in MM.1S cells; type: cell-based, human; conditions: 48 hours
# Description: The down-regulation of CD44 cell surface expression was also observed by flow cytometry in all MM cell lines tested expressing detectable CD44 levels (FIG. 1D, FIGS. 2E-2F and data not shown).
# as §1
# CD44 = CD44 expression in whole bone marrow of MM patients by flow cytometry; type: cell-based, human; conditions: 24 hrs; all 5 Len-refractory and 2 of the 3 newly diagnosed MM patients
# Description: Since MM cell survival is strongly dependent on microenvironment, the effects of AR-42 in combination with Len on MM cell killing in the context of the bone marrow (BM) milieu was examined. Total BM samples obtained from 5 Len-refractory MM (patients 1, 2, 3, 4, and 7) and 3 newly diagnosed MM patients (patients 5, 6, and 8) were treated with AR-42 (0.2 μM) and Len (5 μM) as single agents, and in combination. […] The BM cells from the same patients were used to assess CD44 expression at 24 hrs after AR-42 treatment.
# CD44 surface expression was analyzed by staining cells with CD44-FITC antibody (BD Biosciences) for 30 min. in the dark, at room temperature. Apoptosis was measured by Annexin V-FITC and Propidium Iodide (PI) (Clontech) staining for 15 min. in the dark, at room temperature and data immediately acquired on a Beckman Coulter FC500 (Beckman Coulter) machine. Analysis was conducted using the FlowJo Software vX.0.7 (Tree Star Inc.). For the multiparametric analysis, the bone marrow samples were stained with CD38-PE (347687; BD Bioscience), CD138-APC (347193; BD Bioscience), CD45-ECD (A07784; Beckman Coulter), CD44-FITC (BD Bioscience) and AnnexinV-FITC (Clontech) for 30 minutes, washed with PBS and immediately analyzed with Gallios cytometer (Beckman Coulter).
# Mouse data were evaluated by ANOVA, and synergy between AR-42 and Len was tested by interaction contrast. […]
# CD44 3′UTR element = test: CD44 3'UTR luciferase reporter assay in MM.1S cells; type: cell-based, human; conditions: 0.2 μM, 24 hours, vs untreated cells
# Description: To address the molecular mechanism(s) responsible for downregulation of CD44 gene, the potential role of one or more cis regulatory regions was considered. […] The CD44 3′UTR element was subcloned downstream from the SV40 promoter-driven luciferase gene and transiently transfected the resulting reporter plasmid into MM.1S cells. Incubation of these cells with 0.2 μM AR-42 for 24 hours decreased luciferase activity detecting the activity of the CD44 3′UTR element by 35% as compared to untreated cells (FIG. 5A).
# (Forward) 5′-gctagc[…]-3′ (SEQ ID NO: 1) and 5′- gctagc[…]-3′ (SEQ ID NO: 2) (engineered Nhel sites are in lower case), and the products were cloned into Xbal site downstream from the luciferase gene in pGL3-control vector (Promega). To generate IGF2BP3 luciferase reporter constructs, the 3′UTR was amplified by PCR using primers: (Forward) 5′-[…]-3′ (SEQ ID NO: 3) and (Reverse) 5′-[…]-3′ (SEQ ID NO: […]), and cloned into Xbal site of pGL3-control vector (Promega). Mutations in the miR-9-5p binding site of the IGF2BP3 3′UTR were introduced by the QuikChange Mutagenesis Kit (Stratagene) and the following primers:
# Hela and 293T cells were transfected with 500 ng of 3′UTR-pGL3-control plasmid and 50 ng of Renilla luciferase expression construct (pRL-TK; Promega), using Lipofectamine 2000 (Invitrogen). […]
smiles,measurement,setting,value
"CC(C)[C@H](C(=O)Nc1ccc(C(=O)NO)cc1)c1ccccc1 [AR-42, (S)-N-hydroxy-4-(3-methyl-2-phenylbutanamido)benzamide]",hyperacetylation of histone 3 and 4,histone 3 and 4,detectable hyperacetylation
same,miR-9-5p expression levels,miR-9-5p,increased
same,IC50,MM cells,200 nM
same,CD48 protein and mRNA levels,CD48,consistent up-regulation
same,CD44 expression in whole BM,CD44,Downregulation
same,decrease of luciferase activity of the CD44 3′UTR element,CD44 3′UTR element,35%
